Assay results taken from ChEMBL document CHEMBL5131382, “Facile and divergent optimization of chromazonarol enabled the identification of simplified drimane meroterpenoids as novel pharmaceutical leads” (Eur J Med Chem, 2022).

Assays:
Pyricularia oryzae = test: Antifungal activity against Pyricularia oryzae at 150 uM; assay type: functional
Rhizoctonia solani [1] = test: Antifungal activity against Rhizoctonia solani; assay type: functional, organism-based
HepG2 = test: Antiproliferative activity against human HepG2 cells assessed as inhibition of cell proliferation incubated for 72 hrs by MTT assay; assay type: functional, cell-based; conditions: HepG2, 72 h
Sclerotinia sclerotiorum [2] = test: Antifungal activity against Sclerotinia sclerotiorum at 150 uM; assay type: functional
MCF7 = test: Antiproliferative activity against human MCF7 cells assessed as inhibition of cell proliferation incubated for 72 hrs by MTT assay; assay type: functional, cell-based; conditions: MCF7, 72 h
Fusarium graminearum = test: Antifungal activity against Fusarium graminearum at 150 uM; assay type: functional
Phytophthora capsici = test: Antifungal activity against Phytophthora capsici at 150 uM; assay type: functional
Sclerotinia sclerotiorum [3] = test: Antifungal activity against Sclerotinia sclerotiorum; assay type: functional, organism-based
Rhizoctonia solani [4] = test: Antifungal activity against Rhizoctonia solani at 150 uM; assay type: functional

Row | SMILES | inhibition at 150 µM (Pyricularia oryzae) | EC50 (Rhizoctonia solani [1]) | EC50 (HepG2) | inhibition at 150 µM (Sclerotinia sclerotiorum [2]) | EC50 (MCF7) | inhibition at 150 µM (Fusarium graminearum) | inhibition at 150 µM (Phytophthora capsici) | EC50 (Sclerotinia sclerotiorum [3]) | inhibition at 150 µM (Rhizoctonia solani [4])
1 | CC1(C)CCC[C@]2(C)[C@@H](Cc3cc(O)ccc3O)[C@](C)(O)CC[C@@H]12 | 28% | > 150 µM | > 50 µM | 39% | 50 µM | 39% | 28% | > 150 µM | 48%
2 | CC1(C)CCC[C@@]2(C)C1CC[C@@]1(C)Oc3ccc(-c4ccncc4)cc3C[C@@H]12 (stereo partly specified) | < 60% | – | – | < 60% | – | < 60% | < 60% | – | < 60%
3 | CC1(C)CCC[C@]2(C)[C@@H](Cc3ccc(O)cc3O)[C@](C)(O)CC[C@@H]12 | 9% | 41.7 µM | 10.2 µM | 81% | 11.9 µM | 41% | 37% | 15.2 µM | 91%
4 | CC1(C)CCC[C@]2(C)[C@H]3Cc4ccc(O)cc4O[C@]3(C)CC[C@@H]12 | 50% | – | – | 47% | – | 49% | 53% | – | 72%
5 | CC1(C)CCC[C@]2(C)[C@H]3Cc4cccc(O)c4O[C@]3(C)CC[C@@H]12 | 21% | – | – | 22% | – | 31% | 40% | – | 53%
6 | CC1(C)CCC[C@@]2(C)C1CC[C@@]1(C)Oc3ccc(OS(=O)(=O)C(F)(F)F)cc3C[C@@H]12 (stereo partly specified) | < 60% | – | – | < 60% | – | < 60% | < 60% | – | < 60%
7 | Cc1c(C[C@@H]2[C@@]3(C)CCCC(C)(C)[C@H]3CC[C@]2(C)O)c(O)cc(O)c1C[C@@H]1[C@@]2(C)CCCC(C)(C)[C@@H]2CC[C@@]1(C)O | -4% | – | – | 6% | – | 4% | 6% | – | 1%
8 | CC1(C)CCC[C@@]2(C)C1CC[C@@]1(C)Oc3ccc(OC(=O)Nc4ccc(F)cc4)cc3C[C@@H]12 (stereo partly specified) | < 60% | – | – | < 60% | – | < 60% | < 60% | – | < 60%
9 | CC1(C)CCC[C@@]2(C)C1CC[C@@]1(C)Oc3ccc(O)c(Cl)c3C[C@@H]12 (stereo partly specified) | < 60% | – | – | < 60% | – | < 60% | < 60% | – | < 60%
10 | CC1(C)CCC[C@]2(C)[C@H]3Cc4c(O)cccc4O[C@]3(C)CC[C@@H]12 | 45% | – | – | 52% | – | 43% | 54% | – | 75%
11 | CC1(C)CCC[C@]2(C)[C@@H](Cc3ccc(O)c(O)c3)[C@](C)(O)CC[C@@H]12 | 50% | – | – | 61% | – | 38% | 72% | – | 49%
12 | COc1cc2c(cc1OC)O[C@]1(C)CC[C@H]3C(C)(C)CCC[C@]3(C)[C@H]1C2 | 9% | – | – | 21% | – | 29% | 5% | – | 13%
13 | CC1(C)CCC[C@]2(C)[C@@H](Cc3c(O)cccc3O)[C@](C)(O)CC[C@@H]12 | 15% | 29.3 µM | 13.9 µM | 84% | 16 µM | 49% | 50% | 26.7 µM | 88%
14 | Cc1cc(O)cc(O)c1C[C@@H]1[C@@]2(C)CCCC(C)(C)[C@@H]2CC[C@@]1(C)O | 65% | 35.2 µM | 11.1 µM | 82% | 11.3 µM | 56% | 29% | 40.4 µM | 92%
15 | CC1(C)CCC[C@]2(C)[C@H]3Cc4cc(O)cc(O)c4[C@]3(C)CC[C@@H]12 | 49% | – | – | 43% | – | 60% | 65% | – | 68%
16 | COc1ccc(NC(=O)Oc2ccc3c(c2)C[C@H]2[C@@](C)(CCC4C(C)(C)CCC[C@@]42C)O3)cc1 (stereo partly specified) | < 60% | – | – | < 60% | – | < 60% | < 60% | – | < 60%
17 | CC1(C)CCC[C@]2(C)[C@@H](Cc3cc(O)cc(O)c3)[C@](C)(O)CC[C@@H]12 | -5% | – | – | 10% | – | 5% | 3% | – | -10%
18 | CC1(C)CCC[C@]2(C)[C@@H](Cc3cccc(O)c3O)[C@](C)(O)CC[C@@H]12 | 24% | – | – | 42% | – | 36% | 24% | – | 42%
19 | Cc1ccc(O)c(C[C@@H]2[C@@]3(C)CCCC(C)(C)[C@@H]3CC[C@@]2(C)O)c1 | -5% | – | – | 8% | – | -4% | 1% | – | -12%
20 | CC1(C)CCC[C@]2(C)C3=CC4=CC(=O)C(=O)C=C4O[C@]3(C)CC[C@@H]12 | -2% | – | – | 37% | – | 44% | 18% | – | 15%
21 | CC1(C)CCC[C@]2(C)[C@@H](Cc3cc(C(=O)O)ccc3O)[C@](C)(O)CC[C@@H]12 | 60% | 22.5 µM | > 50 µM | 84% | 50 µM | 56% | 62% | 22.2 µM | 85%
22 | CC1(C)CCC[C@@]2(C)[C@H]1CCC1(C)Oc3ccc(Oc4cccnc4)cc3C[C@@H]12 (single isomer, unassigned) | < 60% | – | – | < 60% | – | < 60% | < 60% | – | < 60%
23 | Cc1cc(O)c(C[C@@H]2[C@@]3(C)CCCC(C)(C)[C@@H]3CC[C@@]2(C)O)c(O)c1 [ALBACONOL] | 7% | > 150 µM | 10.4 µM | 72% | 10.1 µM | 43% | 30% | 24.4 µM | 49%
24 | O=C(Nc1ccccc1-c1ccc(Cl)cc1)c1cccnc1Cl [BOSCALID] | 74% | 1.62 µM | – | 79% | – | 27% | 23% | 0.75 µM | 93%
